Measured values reported in patent publication US11458149B1, “TEAD inhibitors and uses thereof” (Ikena Oncology, Inc., priority 2019, dated 2022).

What was measured:
TEAD = TEAD reporter assay (Hippo Pathway TEAD Reporter - MCF7 cell line, luciferase); type: cell-based, human; details: Homo sapiens, MCF7, TEAD Reporter - MCF7 cells; read-out: TEAD Reporter Assay EC50
Source text: TEAD inhibition can be assayed using Hippo Pathway TEAD Reporter—MCF7 Cell Line (BPS Bioscience, Catalog #: 60618).
The TEAD Reporter—MCF7 cell line contains the firefly luciferase gene under the control of TEAD responsive elements stably integrated into the human breast cancer cell line, MCF7. Inside the cells, basal unphosphorylated YAP/TAZ remains in the nucleus and induces the constitutive expression of luciferase reporter. The cell line is validated for the inhibition of the expression of luciferase reporter by the activators of the Hippo pathway.
• 1) Harvest TEAD Reporter—MCF7 cells from culture in growth medium and seed cells at a density of 35,000 cells per well into white clear-bottom 96-well microplate in 45 μl of assay medium. • 2) Incubate cells at 37° C. in a CO2 incubator for overnight. • 3) Dilute the activators (H2O2 or okadaic acid) stock in assay medium. Add 5 μl of diluted activators to the wells. The final concentration of DMSO in assay medium is 0.1%. • 4) Add 5 μl of assay medium with same concentration of DMSO without activator to control wells. • 5) Add 50 μl of assay medium with DMSO to cell-free control wells (for determining background luminescence). • 6) Set up each treatment in at least triplicate. • 7) Incubate cells at 37° C. in a CO2 incubator for 5-6 hours. • 8) Perform luciferase assay using the ONE-Step™ Luciferase Assay System following the protocol provided: Add 100 μl of ONE-Step™ Luciferase reagent per well and rock at room temperature for ˜15 minutes. Measure luminescence using a luminometer. • 9) Data Analysis: Obtain the background-subtracted luminescence by subtracting the average background luminescence (cell-free control wells) from the luminescence reading of all wells.
(§1) Certain compounds were tested in TEAD reporter assay, and in H226 and H28. A: EC50<0.1 uM; B: 0.1 uM≤EC50≤0.5 uM; C: EC50>0.5 uM.

H226 = experiment: Anti-proliferation assay in H226 cells; type: cell-based, human; details: Homo sapiens, NCI-H226, H226 cells; read-out: H226 EC50
Experimental: as §1
(§2) Individual cell lines were grown in medium according to supplier instructions and seeded into 96-well plates at a density that ensured logarithmic growth over 72 hours. TEAD inhibitor compounds were administered to cells at a top concentration of 10 μm and subsequently a 10 point 3-fold serial dilution was conducted. After 72 hours, proliferation was quantified using Cell TITERGLO™ (Promega, Inc.) and compared to vehicle control. IC50 and EC50 values were generated using XLFit curve fitting software.

H28 = experiment: Anti-proliferation assay in H28 cells; type: cell-based; details: Homo sapiens, NCI-H28
Experimental: as §1, §2
The effect of isomer 2 of compound I-12 on cell proliferation is dependent on the presence of a Hippo/NF2 mutation. No effect is seen by isomer 2 of compound I-12 on the NF2 wild-type H28 cell line.

[1] = Mouse pharmacokinetics study; type: in vivo; details: mouse, BALB/c mice, 10 mg/kg oral gavage, 5% DMS/95% PEG400, plasma
Experimental: Formulated compounds were administered intravenously or orally via gavage to BALB/c mice. Typically, at 0.167, 0.5, 1, 2, 4, 6, 12, and 24 hours post-dose, blood was collected and processed to plasma by centrifugation and stored at −80° C. until analysis. Internal standard was added to each sample prior to protein precipitation with acetonitrile or TCA. The precipitates were filtered through a filter plate and the samples were analyzed by LC/MS/MS. A standard curve was prepared in plasma from typically from 1.0 ng/mL to 3000 ng/mL and processed in the same manner as the samples. Sample analysis was typically performed on a suitable LC/MS/MS system fitted with an analytical UPLC column and compounds eluted from the analytical column with a gradient from 30-95% 0.1% formic acid (v/v) in ACN: 0.1% formic acid (v/v) in water. Mass spectrometric detection of test compound and the internal standard was performed by […] in positive mode. The pharmacokinetics of each compound were analyzed by Phoenix WinNonlin software (Pharsight, St. Louis, Mo.) via noncompartmental analysis. FIG. 4 depicts pharmacokinetic (PK) properties of isomer 1 of compound I-186 following dosing in BALB/c mice.

EC50 (TEAD) | EC50 (H226) | AUC(0-t) [1] | Cmax ([1]; read-out: Cmax) | Structure (SMILES) | EC50 (H28)
< 100 nM | < 100 nM |  |  | C=CC(=O)Nc1ccc(C)c(Nc2ccc(Cl)cc2)c1 [Compound I-27, N-[3-(4-Chloroanilino)-4-methyl-phenyl]prop-2-enamide] | > 500 nM
> 500 nM | > 500 nM |  |  | C=CC(=O)NC1CCN(S(=O)(=O)c2ccc(C(F)(F)F)cc2)CC1 [Compound I-50, N-[1-[4-(trifluoromethyl)phenyl]sulfonyl-4-piperidyl]prop-2-enamide] | > 500 nM
< 100 nM | < 100 nM |  |  | C=CC(=O)Nc1ccc(C)c(Oc2cc(C(F)(F)F)ccn2)c1 [Compound I-31, N-[4-methyl-3-[[4-(trifluoromethyl)-2-pyridyl]oxy]phenyl]prop-2-enamide] | > 500 nM
> 500 nM | > 500 nM |  |  | C=CC(=O)Nc1cccc(C)c1Oc1ccc(Cl)cc1 [Compound I-28, N-[2-(4-Chlorophenoxy)-3-methyl-phenyl]prop-2-enamide] | > 500 nM
< 100 nM | < 100 nM |  |  | C=CC(=O)Nc1ccc(Br)c(Nc2cccc(C(F)(F)F)c2)c1 [Compound I-36, N-[4-bromo-3-[3-(trifluoromethyl)anilino]phenyl]prop-2-enamide] | > 500 nM
> 500 nM | > 500 nM |  |  | C=CC(=O)NC1CCN(Cc2ccccc2C(F)(F)F)CC1 [Compound I-49, N-[1-[[2-(trifluoromethyl)phenyl]methyl]-4-piperidyl]prop-2-enamide] | > 500 nM
100 to 500 nM | 100 to 500 nM | 1140 ng·h/mL | 735 ng/mL | C=CC(=O)NC1CCN(Cc2ccc(C(F)(F)F)cc2)CC1 [Compound I-46, N-[1-[[4-(Trifluoromethyl)phenyl]methyl]-4-piperidyl]prop-2-enamide] | > 500 nM
< 100 nM | < 100 nM |  |  | C=CC(=O)Nc1ccc(-c2cn(C)cn2)c(Nc2cccc(C(F)(F)F)c2)c1 [Compound I-40, N-[4-(1-methylimidazol-4-yl)-3-[3-(trifluoromethyl)anilino]phenyl]prop-2-enamide] | > 500 nM
< 100 nM | < 100 nM |  |  | C=CC(=O)Nc1ccc(C)c(Nc2cccc(C(F)(F)F)c2)c1 [Compound I-33, N-[4-Methyl-3-[3-(trifluoromethyl)anilino]phenyl]prop-2-enamide] | > 500 nM
< 100 nM | 100 to 500 nM |  |  | C=CC(=O)Nc1cc(Oc2cccc(C(F)(F)F)c2)c2ccccc2c1 [Compound I-29, N-[4-[3-(Trifluoromethyl)phenoxy]-2-naphthyl]prop-2-enamide] | > 500 nM
